Results: patent publication US8053553B2, “Targeting host proteinases as a therapeutic strategy against viral and bacterial pathogens” (Socpra Sciences Sante Et Humaines, priority 2007, dated 2011)
Non-standard residues stand in square brackets, D forms with d. Residues, ends and D or L forms follow the SMILES beside them. Sar = CNCC(=O)O

Biological target: T1, furin (Homo sapiens, UniProt P09958)
T1 construct: made in house; host or cells: Drosophila S2 cells (Invitrogen expression system)
Experiment: biochemical
Settings: furin, Pyr-RTKR-AMC substrate; alanine scanning mutagenesis of the H5 furin cleavage sequence (Table 2); read-out: Ki

T1 sequence (P09958 108-794 limits assumed): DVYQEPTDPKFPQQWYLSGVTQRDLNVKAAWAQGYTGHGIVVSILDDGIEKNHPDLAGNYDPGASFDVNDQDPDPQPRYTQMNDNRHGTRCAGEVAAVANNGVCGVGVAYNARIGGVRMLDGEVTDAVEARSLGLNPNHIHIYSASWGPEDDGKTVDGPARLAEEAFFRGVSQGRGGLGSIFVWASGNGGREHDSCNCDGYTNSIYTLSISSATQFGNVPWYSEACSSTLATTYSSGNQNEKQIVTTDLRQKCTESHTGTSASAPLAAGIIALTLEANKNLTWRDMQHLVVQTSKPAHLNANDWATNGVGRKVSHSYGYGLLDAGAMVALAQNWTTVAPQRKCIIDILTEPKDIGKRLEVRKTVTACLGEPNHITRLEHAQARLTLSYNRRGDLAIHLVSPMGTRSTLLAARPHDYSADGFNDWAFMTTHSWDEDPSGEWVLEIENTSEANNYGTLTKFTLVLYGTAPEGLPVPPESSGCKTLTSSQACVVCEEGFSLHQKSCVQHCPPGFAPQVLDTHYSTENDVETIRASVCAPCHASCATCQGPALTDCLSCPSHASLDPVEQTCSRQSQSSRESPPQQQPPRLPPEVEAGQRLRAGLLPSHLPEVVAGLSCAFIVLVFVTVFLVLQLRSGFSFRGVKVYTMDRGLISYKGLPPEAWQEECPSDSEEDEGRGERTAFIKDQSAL

SMILES | Ki
C[C@H](NC(=O)[C@H](CCCCN)NC(=O)[C@H](CCCNC(=N)N)NC(=O)[C@H](CCCNC(=N)N)NC(=O)[C@H](CCCNC(=N)N)NC(=O)[C@H](CCC(=O)O)NC(=O)[C@H](CCCNC(=N)N)NC(=O)[C@@H]1CCCN1C(=O)[C@@H](N)[C@@H](C)O)C(=O)N[C@@H](CCCNC(=N)N)C(=O)N(C)CC(N)=O (H-TPRERRRKAR[Sar]-NH2) | > 100 nM
CC(C)[C@H](NC(=O)[C@H](CCCNC(=N)N)NC(=O)[C@H](CCCCN)NC(=O)[C@H](CCCCN)NC(=O)[C@H](C)NC(=O)[C@H](CCCNC(=N)N)NC(=O)[C@H](CCCNC(=N)N)NC(=O)[C@H](CCC(=O)O)NC(=O)[C@H](CCCNC(=N)N)NC(=O)[C@@H]1CCCN1C(=O)[C@@H](N)[C@@H](C)O)C(N)=O (H-TPRERRAKKRV-NH2) | > 100 nM
C[C@@H](O)[C@H](N)C(=O)N1CCC[C@H]1C(=O)N[C@@H](CCCNC(=N)N)C(=O)N[C@@H](CCC(=O)O)C(=O)N[C@@H](CCCNC(=N)N)C(=O)N[C@@H](CCCNC(=N)N)C(=O)N[C@@H](CCCNC(=N)N)C(=O)N[C@@H](CCCCN)C(=O)N[C@@H](CCCCN)C(=O)N[C@@H](CCCNC(=N)N)C(=O)N(C)CC(N)=O (H-TPRERRRKKR[Sar]-NH2) | > 100 nM
C[C@H](NC(=O)[C@H](C)NC(=O)[C@H](CCCNC(=N)N)NC(=O)[C@H](CCCNC(=N)N)NC(=O)[C@H](CCCNC(=N)N)NC(=O)[C@H](CCC(=O)O)NC(=O)[C@H](CCCNC(=N)N)NC(=O)[C@@H]1CCCN1C(=O)[C@@H](N)[C@@H](C)O)C(=O)N[C@@H](CCCNC(=N)N)C(=O)NCC(N)=O | > 100 nM
CC(C)[C@H](NC(=O)[C@H](CCCNC(=N)N)NC(=O)[C@H](CCCCN)NC(=O)[C@H](CCCCN)NC(=O)[C@H](CCCNC(=N)N)NC(=O)[C@H](CCCNC(=N)N)NC(=O)[C@H](CCCNC(=N)N)NC(=O)[C@H](CCC(=O)O)NC(=O)[C@H](C)NC(=O)[C@H](C)NC(=O)[C@H](C)N)C(N)=O (H-AAAERRRKKRV-NH2) | > 100 nM
C[C@H](N)C(=O)N1CCC[C@H]1C(=O)N[C@@H](CCCNC(=N)N)C(=O)N[C@@H](CCC(=O)O)C(=O)N[C@@H](CCCNC(=N)N)C(=O)N[C@@H](CCCNC(=N)N)C(=O)N[C@@H](CCCNC(=N)N)C(=O)N[C@@H](CCCCN)C(=O)N[C@@H](CCCCN)C(=O)N[C@@H](CCCNC(=N)N)C(=O)NCC(N)=O (H-APRERRRKKRG-NH2) | > 100 nM
CC(C)[C@H](NC(=O)[C@H](CCCNC(=N)N)NC(=O)[C@H](C)NC(=O)[C@H](C)NC(=O)[C@H](CCCNC(=N)N)NC(=O)[C@H](CCCNC(=N)N)NC(=O)[C@H](CCCNC(=N)N)NC(=O)[C@H](CCC(=O)O)NC(=O)[C@H](CCCNC(=N)N)NC(=O)[C@@H]1CCCN1C(=O)[C@@H](N)[C@@H](C)O)C(N)=O (H-TPRERRRAARV-NH2) | > 100 nM
CC(C)[C@H](NC(=O)[C@H](C)NC(=O)[C@H](C)NC(=O)[C@H](CCCCN)NC(=O)[C@H](CCCNC(=N)N)NC(=O)[C@H](CCCNC(=N)N)NC(=O)[C@H](CCCNC(=N)N)NC(=O)[C@H](CCC(=O)O)NC(=O)[C@H](CCCNC(=N)N)NC(=O)[C@@H]1CCCN1C(=O)[C@@H](N)[C@@H](C)O)C(N)=O (H-TPRERRRKAAV-NH2) | > 100 nM
CC(C)[C@H](NC(=O)[C@H](CCCNC(=N)N)NC(=O)[C@H](C)NC(=O)[C@H](CCCCN)NC(=O)[C@H](CCCNC(=N)N)NC(=O)[C@H](CCCNC(=N)N)NC(=O)[C@H](CCCNC(=N)N)NC(=O)[C@H](CCC(=O)O)NC(=O)[C@H](CCCNC(=N)N)NC(=O)[C@@H]1CCCN1C(=O)[C@@H](N)[C@@H](C)O)C(N)=O (H-TPRERRRKARV-NH2) | > 100 nM
C[C@H](NC(=O)[C@H](C)NC(=O)[C@H](CCCCN)NC(=O)[C@H](CCCNC(=N)N)NC(=O)[C@H](CCCNC(=N)N)NC(=O)[C@H](CCCNC(=N)N)NC(=O)[C@H](CCC(=O)O)NC(=O)[C@H](CCCNC(=N)N)NC(=O)[C@@H]1CCCN1C(=O)[C@@H](N)[C@@H](C)O)C(=O)NCC(N)=O (H-TPRERRRKAAG-NH2) | > 100 nM
C[C@H](NC(=O)[C@H](C)NC(=O)[C@H](CCC(=O)O)NC(=O)[C@H](CCCNC(=N)N)NC(=O)[C@@H]1CCCN1C(=O)[C@@H](N)[C@@H](C)O)C(=O)N[C@@H](C)C(=O)N[C@@H](CCCCN)C(=O)N[C@@H](CCCCN)C(=O)N[C@@H](CCCNC(=N)N)C(=O)NCC(N)=O (H-TPREAAAKKRG-NH2) | > 100 nM
C[C@H](NC(=O)[C@H](C)NC(=O)[C@H](CCCNC(=N)N)NC(=O)[C@H](CCC(=O)O)NC(=O)[C@H](CCCNC(=N)N)NC(=O)[C@@H]1CCCN1C(=O)[C@@H](N)[C@@H](C)O)C(=O)N[C@@H](CCCCN)C(=O)N[C@@H](CCCCN)C(=O)N[C@@H](CCCNC(=N)N)C(N)=O (H-TPRERAAKKR-NH2) | > 100 nM

Same assay, conditions: furin, Pyr-RTKR-AMC substrate; optimization of the inhibitory peptides (Table 3); read-out: Ki

SMILES | Ki
C[C@H](NC(=O)[C@H](CCCNC(=N)N)NC(=O)[C@H](CCC(N)=O)NC(=O)[C@@H]1CCCN1C(=O)[C@@H](N)[C@@H](C)O)C(=O)N[C@@H](CCCNC(=N)N)C(=O)N[C@@H](CCCNC(=N)N)C(=O)N[C@@H](CCCNC(=N)N)C(=O)N[C@@H](CCCCN)C(=O)N[C@@H](CCCCN)C(=O)N[C@@H](CCCNC(=N)N)C(=O)N[C@@H](CCCNC(=N)N)C(N)=O (H-TPQRARRRKKRR-NH2) | > 100 nM
C[C@H](NC(=O)[C@H](CCCNC(=N)N)NC(=O)[C@H](CCC(N)=O)NC(=O)[C@@H]1CCCN1C(=O)[C@@H](N)[C@@H](C)O)C(=O)N[C@@H](CCCNC(=N)N)C(=O)N[C@@H](CCCNC(=N)N)C(=O)N[C@@H](CCCNC(=N)N)C(=O)N[C@@H](CCCCN)C(=O)N[C@@H](CCCCN)C(=O)N[C@@H](CCCNC(=N)N)C(=O)N[C@@H](Cc1ccccc1)C(N)=O (H-TPQRARRRKKRF-NH2) | 44 nM
C[C@H](NC(=O)[C@H](CCCNC(=N)N)NC(=O)[C@H](CCC(N)=O)NC(=O)[C@@H]1CCCN1C(=O)[C@@H](N)[C@@H](C)O)C(=O)N[C@@H](CCCNC(=N)N)C(=O)N[C@@H](CCCNC(=N)N)C(=O)N[C@@H](CCCNC(=N)N)C(=O)N[C@@H](CCCCN)C(=O)N[C@@H](CCCCN)C(=O)N[C@@H](CCCNC(=N)N)C(=O)N[C@@H](CS)C(N)=O (H-TPQRARRRKKRC-NH2) | > 100 nM
C[C@@H](O)[C@H](N)C(=O)N1CCC[C@H]1C(=O)N[C@@H](CCC(N)=O)C(=O)N[C@@H](CCCNC(=N)N)C(=O)N[C@@H](Cc1c[nH]c2ccccc12)C(=O)N[C@@H](CCCNC(=N)N)C(=O)N[C@@H](CCCNC(=N)N)C(=O)N[C@@H](CCCNC(=N)N)C(=O)N[C@@H](CCCCN)C(=O)N[C@@H](CCCCN)C(=O)N[C@@H](CCCNC(=N)N)C(=O)NCC(N)=O (H-TPQRWRRRKKRG-NH2) | > 100 nM
C[C@H](NC(=O)[C@H](CCCNC(=N)N)NC(=O)[C@H](CCC(N)=O)NC(=O)[C@@H]1CCCN1C(=O)[C@@H](N)[C@@H](C)O)C(=O)N[C@@H](CCCNC(=N)N)C(=O)N[C@@H](CCCNC(=N)N)C(=O)N[C@@H](CCCNC(=N)N)C(=O)N[C@@H](CCCCN)C(=O)N[C@@H](CCCCN)C(=O)N[C@@H](CCCNC(=N)N)C(=O)N[C@@H](CC(N)=O)C(N)=O (H-TPQRARRRKKRN-NH2) | > 100 nM
C[C@@H](O)[C@H](N)C(=O)N1CCC[C@H]1C(=O)N[C@@H](CCC(N)=O)C(=O)N[C@@H](CCCNC(=N)N)C(=O)N[C@@H](CC(=O)O)C(=O)N[C@@H](CCCNC(=N)N)C(=O)N[C@@H](CCCNC(=N)N)C(=O)N[C@@H](CCCNC(=N)N)C(=O)N[C@@H](CCCCN)C(=O)N[C@@H](CCCCN)C(=O)N[C@@H](CCCNC(=N)N)C(=O)NCC(N)=O (H-TPQRDRRRKKRG-NH2) | > 100 nM
